Series [1] has as its system Penicillinsensitive S. aureus (5 strains). The series is described as follows: MIC, two-fold serial agar dilution, group (G+)-Ia. The series is classed as cell-based. The note with it: Staphylococcus aureus; (G+)-Ia, 5 strains, Mueller-Hinton agar; read-out: Geometric Mean of MIC. The essentials: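 Two-fold serial agar dilution in Mueller-Hinton agar. Compound weights corrected for purity. Group comprises 5 penicillin-sensitive S. aureus strains.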
On the technique in general: In agar dilution the substance is mixed into plates at graded concentrations.

Series [2] relates to Penicillinresistant S. aureus (5 strains). The series is described as follows: MIC, two-fold serial agar dilution, group (G+)-Ib. The format is cell-based. The following applies: Staphylococcus aureus; (G+)-Ib, 5 strains, Mueller-Hinton agar; read-out: Geometric Mean of MIC. In a few lines:
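Two-fold serial agar dilution in Mueller-Hinton agar against penicillin-resistant S. aureus (5 strains). Test compound weights adjusted for purity.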

Series [3] concerns Cephalothinsensitive E. coli (2 strains), Kl. pneumoniae (1 strain) and Pr. mirabilis (2 strains). Briefly: MIC, two-fold serial agar dilution, group (G-)-Ia. The series is classed as cell-based. The following applies: 5 strains, Mueller-Hinton agar, read-out: Geometric Mean of MIC. The essentials: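 Mueller-Hinton agar, two-fold serial dilution; test compound weights corrected for purity so MICs reflect actual compound content.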

The test system of series [4] is M. morganii (1 strain), Ent. cloacae (2 strains) and Ser. marcescens (2 strains). Briefly: MIC, two-fold serial agar dilution, group (G-)-II. The series is classed as cell-based. The following applies: (G-)-II, 5 strains, Mueller-Hinton agar; read-out: Geometric Mean of MIC. The essentials:
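Two-fold serial agar dilution in Mueller-Hinton agar; test-compound sample weights adjusted for purity of each compound before MIC determination.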

Series [5] deals with Ps. aeruginosa (6 strains). Briefly: MIC, two-fold serial agar dilution, group (G-)-III. The series is classed as cell-based. The following applies: Pseudomonas aeruginosa; (G-)-III, 6 strains, Mueller-Hinton agar; read-out: Geometric Mean of MIC. The protocol:
In the primary evaluation of the compounds of this invention, the Minimum Inhibitory Concentrations (MIC's) of the compounds were determined by the two-fold serial agar dilution method in Mueller-Hinton agar against 32 strains of test organisms in six groups. The sample weights of the test compounds were adjusted according to the purity of each compound, so as to give a more accurate measure of the MIC's.
(G-)III: Ps. aeruginosa (6 strains)

The nature of series [6]: Mouse blood levels after single intramuscular injection. The note with it: in vivo, im, 20 mg/kg. The series is classed as in vivo, mice. The essentials: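 Mice received a single intramuscular dose of 20 mg/kg in 0.1M phosphate buffer, pH 7. Orbital sinus blood was sampled over time and bioassayed on Nutrient Agar (pH 6.6) with E. coli Ess-22-31; t1/2 and AUC were derived from the blood levels.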

In series [7] the test system is S. aureus BX-1633. Briefly: Median protective dose in infected mice. The format is in vivo. The note with it: Staphylococcus aureus, BX1633, im, immediately after intraperitoneal challenge, read-out: PD50. The method, then: (§1) The median protective dose (PD50) of some of the preferred compounds against various microorganisms was determined in mice by intramuscular administration of the test compound immediately after an intraperitoneal bacterial challenge.

In series [8] the test system is S. aureus Smith. The series is described as follows: Median protective dose in infected mice. The series is classed as in vivo. The following applies: Staphylococcus aureus, im, immediately after intraperitoneal challenge, read-out: PD50. The method, then: as §1
Series [9] can be described thus: Solubility in water. The format is physicochemical. The method, then:
A more soluble form of Compound Ia was prepared as follows. […] Powdered NaHCO3 was added in small portions, with stirring. A clear solution was obtained after adding 5.0 mg of NaHCO3 and the indicated pH then was 6.0. After filtration through a Millipore membrane filter to remove they insoluble impurities, the filtrate was lyophilized to give 245 mg of a water-soluble form of Compound Ia, mp 165° C. Estimated purity 80% (by HPLC). The sample was completely soluble in water to give a 25% solution.
To a stirred solution of diphenylmethyl 7-[(Z)-2-t-butoxycarbonylprop-2-oxyimino)-2-(2-tritylaminothiazol-4-yl)-acetamido]-3-iodomethyl-3-cephem-4-carboxylate [VIId'] (700 mg, 0.66 mmole) in 3 mL of DMSO, was added thiazolo[4,5-c]pyridine (115 mg, 0.84 mmole) in two portions and the mixture was stirred for 1.25 hours at room temperature. The reaction mixture was diluted with ether (150 mL) to separate an oily product, which was washed again with ether. The residue was dissolved in methylene chloride (100 mL) and the solution was filtered and evaporated to give 655 mg of the blocked product [XIIId']. The yellow product (630 mg) was suspended in anisole (1 mL) and, with ice cooling, was treated with a mixture of TFA (10 mL) and water (0.5 mL). The mixture was stirred for 20 minutes with ice cooling and then for 1 hour at room temperature. After evaporation of the mixture below 30° C., the residue was triturated with isopropyl ether (50 mL). The precipitate was collected by filtration, and dried under reduced pressure to obtain 485 mg of crude title compound as a yellow powder. The crude product (480 mg) was dissolved in a small volume of aqueous sodium bicarbonate and purified by HPLC (Column, Lichrosorb RP-18; mobile phase, water). The desired fractions were combined (ca. 90 mL) and acidified to pH 2 with dilute hydrochloric acid. The acidified solution was passed through an HP-20 column (50 mL) and washed with water (200 mL). […] Mp >180° C. (dec.).
The free acid of Compound Id (100 mg) was dissolved in a small volume of aqueous sodium bicarbonate and subjected to HPLC (Column, Lichrosorb RP-18; mobile phase, water). The eluate containing the desired product which was concentrated and lyophilized to give 30 mg of the sodium salt of Id as a pale yellow amorphous powder, which was more than 25% soluble in water. Mp 178°-196° C. (dec.).
A solution of diphenylmethyl 7-[(Z)-(2-t-butoxycarbonylprop-2-oxyimino)-2-(2-tritylaminothiazol-4-yl)acetamido]-3-iodomethyl-3-cephem-4-carboxylate [VIId'] (9.0 g, 8.5 mmoles) and thiazolo[4,5-c]pyridine (1.5 g, 11 mmoles) in dimethylsulfoxide (38 mL) was stirred at room temperature for 1 hour. The reaction mixture was poured into ether (500 mL) and, after decantation, the oily precipitate was dissolved in chloroform (300 mL). […]

≈ marks a conversion by molar mass, not a printed value. Where only a bound is given, the exact number is not on record here.

Turning to `CO/N=C(\C(=O)NC1C(=O)N2C(C(=O)[O-])=C(C[n+]3ccc4scnc4c3)CS[C@H]12)c1csc(N)n1` (some centres unmarked) [Ia, 7-[(Z)-2-(2-Aminothiazol-4-yl)-2-methoxyiminoacetamido]-3-{(5-thiazolo[4,5-c]pyridinio)methyl}-3-cephem-4-carboxylate], in [1], the MIC was 0.42 µg/mL (≈ 0.79 µM). In [2], the MIC was found to be 0.96 µg/mL (≈ 1.81 µM). Further, the MIC in series [3] was determined as 0.02 µg/mL (≈ 0.0376 µM). Further, in [4], the MIC was determined as 0.16 µg/mL (≈ 0.301 µM). Moreover, the MIC in series [5] stood at 2.6 µg/mL (≈ 4.89 µM). In series [6], this molecule had an AUC of 15000 ng·h/mL, a concentration at 10 min of 20000 ng/mL, a concentration at 20 min of 15000 ng/mL and a concentration at 0.5 h of 11000 ng/mL. In [6], the concentration at 40 min is 8600 ng/mL, the concentration at 50 min is 6900 ng/mL, the concentration at 1 h turned out to be 6500 ng/mL and the concentration at 1.5 h turned out to be 3100 ng/mL. In [6], this molecule gave a concentration at 2 h of 2100 ng/mL and a half-life of 35 min. Further, in [7], the ED50 was determined as 0.75 mg/kg. In series [8], the ED50 was 0.45 mg/kg. In addition, the solubility in water entry in series [9] (250 mg in distilled water 1.0 mL, indicated pH 4.3) is recorded as “not completely soluble”. The molecule also yielded a solubility in [9] (water-soluble form (NaHCO3 to pH 6.0, lyophilized)) of at least 250 mg/mL.

In the case of `CC(C)(O/N=C(\C(=O)NC1C(=O)N2C(C(=O)[O-])=C(C[n+]3ccc4scnc4c3)CS[C@H]12)c1csc(N)n1)C(=O)O` (some centres unmarked) [Id, 7-[(Z)-2-(2-Aminothiazol-4-yl)-2-(2-carboxyprop-2-oxyimino)-acetamido]-3-{(5-thiazolo[4,5-c]pyridinio)methyl}-3-cephem-4-carboxylate], the MIC in [1] was determined as 4.4 µg/mL (≈ 7.29 µM). Further, the minimum inhibitory concentration (MIC) in series [2] was found to be 8.8 µg/mL (≈ 14.6 µM). For the same molecule, the MIC in [3] amounted to 0.04 µg/mL (≈ 0.0663 µM). The MIC in series [4] came out at 0.88 µg/mL (≈ 1.46 µM). Further, the MIC in series [5] was found to be 1.4 µg/mL (≈ 2.32 µM). In series [6], this molecule had an AUC of 9500 ng·h/mL, a concentration at 10 min of 16000 ng/mL, a concentration at 20 min of 14000 ng/mL and a concentration at 0.5 h of 11000 ng/mL. In series [6], this molecule yielded a concentration at 40 min of 6100 ng/mL, a concentration at 50 min of 3900 ng/mL, a concentration at 1 h of 2500 ng/mL and a concentration at 1.5 h of 720 ng/mL. For the same molecule, in [6], the concentration at 2 h is under 200 ng/mL and the half-life is 16 min. Further, the ED50 in series [7] came out at 21 mg/kg. Moreover, in [8], the ED50 worked out at 7.2 mg/kg. Besides, the solubility in water entry in series [9] (free acid) is listed as “slightly soluble in water”. Further, in series [9] (water, sodium salt), the solubility is over 250 mg/mL.

In general, MIC refers to the lowest concentration that inhibits growth of the organism. Usually AUC stands for concentration integrated over time. A lower AUC goes with less exposure. By half-life is commonly meant the time needed for the level to fall by half in the phase considered. A high value points to slow decline. For orientation: solubility means the concentration that dissolves in the medium under given conditions.

(Values after patent US4500526A, “Cephalosporin derivatives” (Bristol-Myers Company, priority 1983, dated 1985).)
